Test results taken from PMC8632254 (Frontiers in Pharmacology, 2021).

Assays:
SFTSV [1] = assay: microbe, parasite or virus in culture; assay type: cell-based; conditions: Severe fever with thrombocytopenia syndrome virus, Vero
SFTSV [2] = assay: microbe, parasite or virus in culture; assay type: cell-based, Severe fever with thrombocytopenia syndrome virus; conditions: for IC50: Severe fever with thrombocytopenia syndrome virus, HUVEC
in vitro [3] = conditions: African green monkey
in vitro [4] = conditions: human
SFTSV [5] = assay type: cell-based, Severe fever with thrombocytopenia syndrome virus
SFTSV [6] = assay type: cell-based, Severe fever with thrombocytopenia syndrome virus; remark: listed apart in the source
SFTSV [7] = assay type: cell-based, Severe fever with thrombocytopenia syndrome virus; remark: listed apart in the source
SFTSV [8] = assay type: cell-based, Severe fever with thrombocytopenia syndrome virus; remark: listed apart in the source
SFTSV [9] = assay type: cell-based, Severe fever with thrombocytopenia syndrome virus; remark: listed apart in the source
SFTSV [10] = assay type: cell-based, Severe fever with thrombocytopenia syndrome virus; remark: listed apart in the source
SFTSV mini-genome = assay type: cell-based, Severe fever with thrombocytopenia syndrome virus
SFTSV [11] = test system: SFTSV; parameters: species or system C57BL/6 mice; conditions: mouse, in vivo, ip, 4 mg/kg/day
[12] = test system: Rift Valley fever virus (RVFV); assay: microbe, parasite or virus in culture; assay type: cell-based; conditions: HUVEC
[13] = test system: Rift Valley fever virus (RVFV); assay type: cell-based
SARS-CoV-2 [14] = assay: microbe, parasite or virus in culture; assay type: cell-based; conditions: Severe acute respiratory syndrome coronavirus 2, Vero C1008
SARS-CoV-2 [15] = assay type: cell-based
HUVEC cells = conditions: human
SFTSV [16] = conditions: mouse, in vivo, ip, 1 mg/kg/day

SMILES: CC(C)=CCCC(C)(O)C1CCC2(C)C1C(O)CC1C3(C)CCC(OC4OC(CO)C(O)C(O)C4OC4OC(CO)C(O)C(O)C4OC4OCC(O)C(O)C4O)C(C)(C)C3CCC12C (stereo not shown) [Notoginsenoside Ft1, notoginsenoside Ft1]
- IC50 (SFTSV [1]): 3.5 µM
- IC50 (SFTSV [2]): 11 µM
- CC50 (in vitro [3]): > 250 µM
- CC50 (in vitro [4]): ~62.5 µM

SMILES: O=C1OC[C@H]2OC(O)[C@H](O)[C@@H](O)[C@@H]2OC(=O)c2cc(O)c(O)c(O)c2-c2c(O)c(O)c3oc(=O)c4c(c(O)c(O)c5oc(=O)c2c3c54)-c2c1cc(O)c(O)c2O (mixture of isomers) [Punicalin, punicalin]
- IC50 (SFTSV [1]): 3.8 µM
- SI (SFTSV [2]): > 100
- IC50 (SFTSV [2]): 2.5 µM
- virucidal effect on SFTSV virions (SFTSV [5]): directly inactivated virions in a dose dependent manner
- CC50 (in vitro [3]): > 125 µM
- CC50 (in vitro [4]): > 250 µM

SMILES: CC(=O)O[C@@H]1C[C@H](O)[C@@]23CO[C@@H](O)[C@]1(C)[C@@H]2C[C@@H](O)[C@]1(C)[C@@H]3C(=O)[C@H](OC(C)=O)[C@@]2(C)[C@H](c3ccoc3)C[C@H]3O[C@]321 [Toosendanin, toosendanin]
- IC50 (SFTSV [1]): 1.2 µM
- IC50 (SFTSV [2]): 0.052 µM
- virucidal effect on SFTSV virions (SFTSV [5]): no virucidal effect
- vRNA and viral protein expression, time of addition (SFTSV [6]): decreased significantly when toosendanin was added prior to but not post SFTSV infection
- SFTSV binding (vRNA level of bound virions) (SFTSV [7]): did not inhibit SFTSV binding
- accumulation of vRNA (internalization), concentration series (SFTSV [8]): dose dependent inhibition effect on accumulation of vRNA
- relative intracellular vRNA (internalization) (SFTSV [8]): significantly reduced
- Number of particles (SFTSV [9]): 20
- amount of internalized viral particles (microscopy) (SFTSV [9]): significantly reduced the amount of internalized viral particles
- syncytium formation (viral fusion) (SFTSV [10]): No significant difference of syncytium formation
- viral RNA replication and transcription (mini-genome) (SFTSV mini-genome): did not affect the viral RNA replication and transcription
- antigen of SFTSV nucleoprotein in spleen sections (SFTSV [11]): reduced the antigen of SFTSV nucleoprotein in the spleen sections
- viral load in the serum (SFTSV [11]): significantly lower than that of the mice in the vehicle control group
- IC50 [12]: 0.13 µM
- inhibition at 0.6 µM [12]: 72.6%
- inhibition at 1.8 µM [12]: 82%
- inhibition at 5.6 µM [12]: 95.5%
- inhibition at 16.7 µM [12]: 93.6%
- inhibition at 50 µM [12]: 95.1%
- time-of-addition result, RVFV [13]: inhibited the entry step of RVFV
- IC50 (SARS-CoV-2 [14]): 0.24 µM
- inhibition at 0.21 µM (SARS-CoV-2 [14]): 42%
- inhibition at 0.62 µM (SARS-CoV-2 [14]): 84.6%
- inhibition at 1.85 µM (SARS-CoV-2 [14]): 92.4%
- inhibition at 5.6 µM (SARS-CoV-2 [14]): 99%
- inhibition at 16.7 µM (SARS-CoV-2 [14]): 99.5%
- inhibition at 50 µM (SARS-CoV-2 [14]): 99.9%
- time-of-addition result, SARS-CoV-2 (SARS-CoV-2 [15]): revealed inhibitory effect when added 1 h post infection
- CC50 (HUVEC cells): > 450 µM
- megakaryocytes accumulation in spleens (H&E) (SFTSV [16]): reduced the megakaryocytes accumulation
- viral antigen in spleen sections (immunohistochemistry) (SFTSV [16]): less viral protein positive cells was detected
- weight loss (SFTSV [16]): did not lead to weight loss
- CC50 (in vitro [4]): > 250 µM
